Measurements as given in patent publication US10889565B2, “4-hydroxy-3-sulfonylpyridin-2(1H)-ones as APJ receptor agonists” (BRISTOL-MYERS SQUIBB COMPANY, priority 2016, dated 2021).

Molecular target: T1, human APJ receptor (Homo sapiens, UniProt P35414)
T1 construct: expressed in transfected cells
T1 sequence (P35414 1-380): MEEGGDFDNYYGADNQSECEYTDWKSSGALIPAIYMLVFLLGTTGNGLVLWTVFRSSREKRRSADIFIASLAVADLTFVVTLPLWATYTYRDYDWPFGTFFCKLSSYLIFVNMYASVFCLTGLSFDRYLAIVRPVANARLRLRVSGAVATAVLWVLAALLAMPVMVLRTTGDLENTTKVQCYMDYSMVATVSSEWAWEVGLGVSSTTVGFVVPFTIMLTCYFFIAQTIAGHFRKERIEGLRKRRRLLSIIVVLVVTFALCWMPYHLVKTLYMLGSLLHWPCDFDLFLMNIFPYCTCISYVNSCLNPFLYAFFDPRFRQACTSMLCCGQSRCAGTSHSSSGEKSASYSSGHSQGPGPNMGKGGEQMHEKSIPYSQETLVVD
Assay: Intracellular cAMP accumulation assay (APJ hcAMP, HTRF)
Type: cell-based
Conditions: HEK293 cells stably expressing human APJ receptor; inhibition of forskolin-mediated cAMP production; read-out: Human APJ cAMP EC50 Potency range
Method: Intracellular cAMP Accumulation Assay
HEK293 cells stably expressing human APJ receptor were used to assess the activity of compounds. Cultured cells were detached and resuspended in the cAMP Homogeneous Time-Resolved Fluorescence (HTRF) assay buffer (Cisbio cat; #62AM4PEJ). The assay was performed in 384-well assay plates (Perkin-Elmer; cat #6008289) according to assay protocol provided by the manufacturer. Serial dilutions of a compound together with assay buffer containing […] IBMX and 2 μM forskolin were added to each well containing 5,000 cells and incubated for 30 minutes at room temperature. Subsequently, cAMP D2 reagent was added in the lysis buffer followed by the EuK antibody (Cisbio; cat #62AM4PEJ) and incubated for 60 min. The fluorescence emission ratio was measured using fluorometer. The intracellular cAMP concentrations (compound-stimulated inhibition of forskolin-mediated cAMP production) were calculated by extrapolation from a standard curve using known cAMP concentrations. The EC50 values were obtained by fitting the data to a sigmoidal concentration-response curve with variable slope. The maximal achievable inhibition of forskolin-induced cAMP levels (Ymax) for each compound was expressed as relative percentage of inhibition attained using pyroglutamated apelin-13 ((Pyr1)apelin-13) peptide, which was set to 100%.
The examples disclosed below were tested in the APJ in vitro assays described above and were found having human APJ cyclic AMP (hcAMP) activity. The EC50 value of each compound is presented at the end of the example description.
The biological activity of the exemplified compounds of this invention determined by the assay described above is shown at the end of each example.

| Structure (SMILES) | EC50 [nM] |
| --- | --- |
| CCOCc1[nH]c(=O)c(S(=O)(=O)c2ccc(-n3cc(Cl)cc(Cl)c3=O)cc2)c(O)c1-c1c(OC)cccc1OC [Example 25, 3-((4-(3,5-dichloro-2-oxopyridin-1(2H)-yl)phenyl)sulfonyl)-5-(2,6-dimethoxy-phenyl)-6-(ethoxymethyl)-4-hydroxy-pyridin-2(1H)-one] | 10 to 100 |
| CCOCc1[nH]c(=O)c(S(=O)(=O)c2ccc(-n3ccccc3=O)cc2)c(O)c1-c1c(OC)cccc1OC [Example 26, 5-(2,6-dimethoxy-phenyl)-6-(ethoxymethyl)-4-hydroxy-3-((4-(2-oxopyridin-1(2H)-yl)phenyl)sulfonyl) pyridin-2(1H)-one] | 0.01 to 10 |
| CCCCc1[nH]c(=O)c(S(=O)(=O)c2ccc(N)cc2)c(O)c1-c1c(OC)cccc1OC [Example 27, 3-((4-aminophenyl)sulfonyl)-6-butyl-5-(2,6-dimethoxyphenyl)-4-hydroxypyridin-2(1H)-one] | 0.01 to 10 |
| CCCCc1[nH]c(=O)c(S(=O)(=O)c2ccc(Nc3ccc(F)cc3)cc2)c(O)c1-c1c(OC)cccc1OC [Example 29, 6-butyl-5-(2,6-dimethoxyphenyl)-3-((4-((4-fluorophenyl)amino)phenyl)sulfonyl)-4-hydroxypyridin-2(1H)-one] | 0.01 to 10 |
| CCCCc1[nH]c(=O)c(S(=O)(=O)c2ccc(NC(=O)c3ccc(F)cc3)cc2)c(O)c1-c1c(OC)cccc1OC [Example 30, N-(4-((6-butyl-5-(2,6-dimethoxyphenyl)-4-hydroxy-2-oxo-1,2-dihydropyridin-3-yl)sulfonyl)phenyl)-4-fluorobenzamide] | 0.01 to 10 |
| CCCCc1[nH]c(=O)c(S(=O)(=O)c2ccc(C)cn2)c(O)c1-c1c(OC)cccc1OC [Example 39, 6-butyl-5-(2,6-dimethoxy-phenyl)-4-hydroxy-3-((5-methyl-pyridin-2-yl)sulfonyl) pyridin-2(1H)-one] | 0.01 to 10 |
| CCCCc1[nH]c(=O)c(S(=O)(=O)c2ccc(-c3ccnc(N4CCOCC4)c3F)cn2)c(O)c1-c1c(OC)cccc1OC [Example 40, 6-butyl-5-(2,6-dimethoxy-phenyl)-3-((3′-fluoro-2′-morpholino-[3,4′-bipyridin]-6-yl)sulfonyl)-4-hydroxypyridin-2(1H)-one] | 0.01 to 10 |
| CCCCc1[nH]c(=O)c(S(=O)(=O)c2ccc(-c3ccc(F)nc3C)cn2)c(O)c1-c1c(OC)cccc1OC [Example 41, 6-butyl-5-(2,6-dimethoxy-phenyl)-3-((6′-fluoro-2′-methyl-[3,3′-bipyridin]-6-yl)sulfonyl)-4-hydroxypyridin-2(1H)-one] | 0.01 to 10 |
| CCCCc1[nH]c(=O)c(S(=O)(=O)c2ccc(-c3ccc(F)nc3)cn2)c(O)c1-c1c(OC)cccc1OC [Example 42, 6-butyl-5-(2,6-dimethoxy-phenyl)-3-((6′-fluoro-[3,3′-bipyridin]-6-yl)sulfonyl)-4-hydroxypyridin-2(1H)-one] | 0.01 to 10 |
| CCCCc1[nH]c(=O)c(S(=O)(=O)c2ccc(-c3ccnc(OC)c3)cn2)c(O)c1-c1c(OC)cccc1OC [Example 44, 6-butyl-5-(2,6-dimethoxy-phenyl)-4-hydroxy-3-((2′-methoxy-[3,4′-bipyridin]-6-yl)sulfonyl) pyridin-2(1H)-one] | 0.01 to 10 |
| CCCCc1[nH]c(=O)c(S(=O)(=O)c2ccc(-c3ccc(C(=O)NC4CC4)cc3)cn2)c(O)c1-c1c(OC)cccc1OC [Example 45, 4-(6-((6-butyl-5-(2,6-dimethoxy-phenyl)-4-hydroxy-2-oxo-1,2-dihydro-pyridin-3-yl)sulfonyl)pyridin-3-yl)-N-cyclopropyl-benzamide] | 0.01 to 10 |
| CCCCc1[nH]c(=O)c(S(=O)(=O)c2ccccn2)c(O)c1-c1c(OC)cccc1OC [Example 46, 6-butyl-5-(2,6-dimethoxy-phenyl)-4-hydroxy-3-(pyridin-2-ylsulfonyl) pyridin-2(1H)-one] | 0.01 to 10 |
| CCCCc1[nH]c(=O)c(S(=O)(=O)c2ccc(-c3ccnc4[nH]ccc34)cn2)c(O)c1-c1c(OC)cccc1OC [Example 47, 3-((5-(1H-pyrrolo[2,3-b]pyridin-4-yl)pyridin-2-yl)sulfonyl)-6-butyl-5-(2,6-dimethoxy-phenyl)-4-hydroxy-pyridin-2(1H)-one] | 0.01 to 10 |
| CCCCc1[nH]c(=O)c(S(=O)(=O)c2nnc[nH]2)c(O)c1-c1c(OC)cccc1OC [Example 48, 3-((4H-1,2,4-triazol-3-yl)sulfonyl)-6-butyl-5-(2,6-dimethoxy-phenyl)-4-hydroxy-pyridin-2(1H)-one] | 10 to 100 |

Further lines, results first:

| EC50 [nM] | Structure (SMILES) |
| --- | --- |
| 0.01 to 10 | CCCCc1[nH]c(=O)c(S(=O)(=O)c2ccc(Nc3ccc(F)nc3)cc2)c(O)c1-c1c(OC)cccc1OC [Example 28, 6-butyl-5-(2,6-dimethoxyphenyl)-3-((4-((6-fluoropyridin-3-yl)amino)phenyl)sulfonyl)-4-hydroxypyridin-2(1H)-one] |
| 0.01 to 10 | CCCCc1[nH]c(=O)c(S(=O)(=O)c2ccc(NC(=O)Nc3ccc(F)cc3)cc2)c(O)c1-c1c(OC)cccc1OC [Example 31, 1-(4-((6-butyl-5-(2,6-dimethoxyphenyl)-4-hydroxy-2-oxo-1,2-dihydropyridin-3-yl)sulfonyl)phenyl)-3-(4-fluorophenyl)urea] |
| 0.01 to 10 | CCCCc1[nH]c(=O)c(S(=O)(=O)c2ccc(Br)cn2)c(O)c1-c1c(OC)cccc1OC [Example 32, 3-((5-bromopyridin-2-yl)sulfonyl)-6-butyl-5-(2,6-dimethoxyphenyl)-4-hydroxypyridin-2(1H)-one] |
| 0.01 to 10 | CCCCc1[nH]c(=O)c(S(=O)(=O)c2ccc(-c3ccnc(F)c3C)cn2)c(O)c1-c1c(OC)cccc1OC [Example 33, 6-butyl-5-(2,6-dimethoxy-phenyl)-3-((2′-fluoro-3′-methyl-[3,4′-bipyridin]-6-yl)sulfonyl)-4-hydroxy-pyridin-2(1H)-one] |
| 0.01 to 10 | CCCCc1[nH]c(=O)c(S(=O)(=O)c2ccc(-c3ccncc3C)cn2)c(O)c1-c1c(OC)cccc1OC [Example 34, 6-butyl-5-(2,6-dimethoxy-phenyl)-4-hydroxy-3-((3′-methyl-[3,4′-bipyridin]-6-yl)sulfonyl) pyridin-2(1H)-one] |
| 0.01 to 10 | CCCCc1[nH]c(=O)c(S(=O)(=O)c2ccc(-c3ccc(OC(F)(F)F)cc3)cn2)c(O)c1-c1c(OC)cccc1OC [Example 35, 6-butyl-5-(2,6-dimethoxy-phenyl)-4-hydroxy-3-((5-(4-(trifluoro-methoxy)phenyl)pyridin-2-yl)sulfonyl) pyridin-2(1H)-one] |
| 0.01 to 10 | CCCCc1[nH]c(=O)c(S(=O)(=O)c2ccc(-c3ccc(F)cc3C)cn2)c(O)c1-c1c(OC)cccc1OC [Example 36, 6-butyl-5-(2,6-dimethoxy-phenyl)-3-((5-(4-fluoro-2-methylphenyl)pyridin-2-yl)sulfonyl)-4-hydroxy-pyridin-2(1H)-one] |
| 0.01 to 10 | CCCCc1[nH]c(=O)c(S(=O)(=O)c2ccc(-c3ccccc3C)cn2)c(O)c1-c1c(OC)cccc1OC [Example 37, 6-butyl-5-(2,6-dimethoxy-phenyl)-4-hydroxy-3-((5-(o-tolyl)pyridin-2-yl)sulfonyl) pyridin-2(1H)-one] |
| 0.01 to 10 | CCCCc1[nH]c(=O)c(S(=O)(=O)c2ccc(-c3cccc(F)c3C)cn2)c(O)c1-c1c(OC)cccc1OC [Example 38, 6-butyl-5-(2,6-dimethoxy-phenyl)-3-((5-(3-fluoro-2-methylphenyl)pyridin-2-yl)sulfonyl)-4-hydroxy-pyridin-2(1H)-one] |
| 0.01 to 10 | CCCCc1[nH]c(=O)c(S(=O)(=O)c2ccc(-c3ccc(F)cc3)cn2)c(O)c1-c1c(OC)cccc1OC [Example 43, 6-butyl-5-(2,6-dimethoxy-phenyl)-3-((5-(4-fluorophenyl)pyridin-2-yl)sulfonyl)-4-hydroxypyridin-2(1H)-one] |
| 0.01 to 10 | C=C(C)c1ccc(S(=O)(=O)c2c(O)c(-c3c(OC)cccc3OC)c(CCCC)[nH]c2=O)nc1 [Example 49, 6-Butyl-5-(2,6-dimethoxyphenyl)-4-hydroxy-3-((5-(prop-1-en-2-yl)pyridin-2-yl)sulfonyl)pyridin-2(1H)-one] |
| 0.01 to 10 | CCCCc1[nH]c(=O)c(S(=O)(=O)c2ccc(C(C)C)cn2)c(O)c1-c1c(OC)cccc1OC [Example 50, 6-Butyl-5-(2,6-dimethoxyphenyl)-4-hydroxy-3-((5-isopropylpyridin-2-yl)sulfonyl)pyridin-2(1H)-one] |
| 0.01 to 10 | CCCCc1[nH]c(=O)c(S(=O)(=O)c2ccc(C3CC3)cn2)c(O)c1-c1c(OC)cccc1OC [Example 51, 6-Butyl-3-((5-cyclopropylpyridin-2-yl)sulfonyl)-5-(2,6-dimethoxyphenyl)-4-hydroxypyridin-2(1H)-one] |
